Experimental data as given in US20090104211A1, “Treatment of atherosclerosis” (AFFIRIS Forschungs-und Entwicklungs GmbH, priority 2004, published 2009).

The substances below were run on anti-CETP monoclonal antibody (detects the CETP-derived amino acid sequence FGFPEHLLVDFLQSLS) (assay: ELISA screening of peptide libraries with anti-CETP monoclonal antibody for mimotope identification). Settings: 7 mer / 8 mer peptide libraries.
Format: binding
Source text: The problem of the anti-CETP vaccine approach discussed above is that the vaccine formulation comprises a self peptide and therefore must break natural tolerance against self antigens. The invention describes a CETP mimotope that can be used for vaccination: The mimotope shall induce the production of antibodies against CETP. […] Thus, the induction of an anti-CETP antibody response is greatly facilitated. The mimotope is identified with a monoclonal antibody (mAb) and (commercially available) peptide libraries (e.g. according to 16). An anti-CETP monoclonal antibody is used that neutralizes CETP activity (17). This mAb detects a sequence within the C-terminal 26 amino acids of CETP necessary for neutral lipid transfer activity (18).
One monoclonal antibody used for the mimotope identification detects the CETP-derived amino acid sequence […] (=original epitope).
The mimotope has a preferred length of 5 to 15 amino acids. Two different libraries are used in ELISA assays to define mimotope sequences.
Library 1: This 7 mer library contains peptides with the following sequences (amino acid positions 1 to 7):
Library 2: This 8 mer library contains peptides with the following sequences (amino acid positions 1 to 8):
Position 1: all natural aa except of C (19 possibilities) Position 2: all natural aa except of C (19 possibilities) Position 3: all natural aa except of C (19 possibilities) Position 4: all natural aa except of C (19 possibilities) Position 5: all natural aa except of C (19 possibilities) Position 6: all natural aa except of C (19 possibilities) Position 7: all natural aa except of C (19 possibilities) Position 8: all natural aa except of C (19 possibilities)

Row | Substance | mimotope detected by monoclonal antibody
1 | ALKNKIP [7 mer peptide, CETP mimotope] | detected by a monoclonal antibody
2 | AVKGKLP [7 mer peptide, CETP mimotope] | detected by a monoclonal antibody
3 | ALKYKLP [7 mer peptide, CETP mimotope] | detected by a monoclonal antibody
4 | ALKNKLP [7 mer peptide, CETP mimotope] | detected by a monoclonal antibody
5 | ALKGKIP [7 mer peptide, CETP mimotope] | detected by a monoclonal antibody
6 | ALKDKVP [7 mer peptide, CETP mimotope] | detected by a monoclonal antibody
7 | ALKSKIP [7 mer peptide, CETP mimotope] | detected by a monoclonal antibody
8 | ALKHKVP [7 mer peptide, CETP mimotope] | detected by a monoclonal antibody
9 | ALKHKIP [7 mer peptide, CETP mimotope] | detected by a monoclonal antibody
10 | AAQKDKVP [8 mer peptide, CETP mimotope] | detected by a monoclonal antibody
11 | ALKDKLP [7 mer peptide, CETP mimotope] | detected by a monoclonal antibody
